Measurements as given in US11572590B2, “Methods for evaluating tumor cell spheroids using 3D microfluidic cell culture device” (Dana-Farber Cancer Institute, Inc., priority 2017, dated 2023).
Where two headings read alike, the source gives them in different places.

Tests used:
Assay in all cases: SelectScreen Kinase Profiling, single point inhibition and IC50 for off-target kinases
Type in all cases: biochemical
[1] = biological target: T1, off-target kinases (Homo sapiens, UniProt P42680); settings: TEC, LanthaScreen Binding
T1 sequence (P42680 1-631): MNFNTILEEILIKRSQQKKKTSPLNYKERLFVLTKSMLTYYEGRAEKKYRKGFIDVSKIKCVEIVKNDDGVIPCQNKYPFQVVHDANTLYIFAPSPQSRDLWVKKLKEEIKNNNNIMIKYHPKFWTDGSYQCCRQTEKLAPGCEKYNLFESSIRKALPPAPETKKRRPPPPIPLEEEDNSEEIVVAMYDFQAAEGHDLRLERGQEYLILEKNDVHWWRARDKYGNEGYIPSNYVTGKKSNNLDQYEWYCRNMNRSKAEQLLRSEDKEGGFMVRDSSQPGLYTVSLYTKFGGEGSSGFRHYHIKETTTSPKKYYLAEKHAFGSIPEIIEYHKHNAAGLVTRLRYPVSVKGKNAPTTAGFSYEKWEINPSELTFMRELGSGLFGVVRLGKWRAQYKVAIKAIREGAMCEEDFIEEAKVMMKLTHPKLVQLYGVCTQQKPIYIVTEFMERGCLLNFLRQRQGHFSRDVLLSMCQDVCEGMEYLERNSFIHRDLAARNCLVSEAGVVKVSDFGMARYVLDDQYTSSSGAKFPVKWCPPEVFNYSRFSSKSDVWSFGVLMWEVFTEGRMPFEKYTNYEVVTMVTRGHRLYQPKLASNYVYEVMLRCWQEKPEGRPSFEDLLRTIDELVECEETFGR

[2] = biological target: T2, off-target kinases (Homo sapiens, UniProt Q9BZL6); settings: PRKD2 (PKD2), ATP Km app, ZLYTE
T2 sequence (Q9BZL6 1-878): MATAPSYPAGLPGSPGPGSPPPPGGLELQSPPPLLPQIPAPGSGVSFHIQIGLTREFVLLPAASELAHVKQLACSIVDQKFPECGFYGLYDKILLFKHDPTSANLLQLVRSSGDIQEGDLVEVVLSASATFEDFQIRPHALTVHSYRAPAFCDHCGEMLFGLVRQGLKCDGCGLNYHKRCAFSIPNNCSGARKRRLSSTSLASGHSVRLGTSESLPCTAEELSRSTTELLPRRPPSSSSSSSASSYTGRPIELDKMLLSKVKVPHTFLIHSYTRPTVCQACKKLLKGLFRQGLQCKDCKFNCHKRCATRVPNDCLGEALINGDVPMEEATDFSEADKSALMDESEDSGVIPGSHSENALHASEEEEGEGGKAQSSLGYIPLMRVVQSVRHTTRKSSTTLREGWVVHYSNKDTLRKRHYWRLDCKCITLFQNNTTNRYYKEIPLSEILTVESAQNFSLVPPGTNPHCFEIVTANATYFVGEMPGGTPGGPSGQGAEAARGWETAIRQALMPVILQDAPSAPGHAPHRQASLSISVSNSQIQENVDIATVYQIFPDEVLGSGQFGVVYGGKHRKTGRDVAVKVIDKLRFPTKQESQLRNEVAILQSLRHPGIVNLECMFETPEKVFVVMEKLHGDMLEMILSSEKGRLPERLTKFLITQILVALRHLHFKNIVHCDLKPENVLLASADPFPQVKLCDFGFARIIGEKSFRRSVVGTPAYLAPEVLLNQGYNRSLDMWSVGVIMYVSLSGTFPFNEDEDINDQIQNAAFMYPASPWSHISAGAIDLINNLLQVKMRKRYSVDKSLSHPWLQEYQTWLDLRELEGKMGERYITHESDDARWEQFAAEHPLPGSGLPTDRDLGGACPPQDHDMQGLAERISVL

[3] = biological target: off-target kinases (Homo sapiens, UniProt Q9BWU1); settings: CDK11 (Inactive); Cmpd1 1000 μM; LanthaScreen Binding
[4] = biological target: off-target kinases (Homo sapiens, UniProt P34947); settings: GRK5, ZLYTE, ATP Km app
[5] = biological target: off-target kinases (Homo sapiens, UniProt Q9UM73, R1275Q); settings: ALK R1275Q (mutant), LanthaScreen Binding
off-target kinases (Homo sapiens, UniProt Q9UM73, R1275Q), sequence (Q9UM73 19-1620 R1275Q): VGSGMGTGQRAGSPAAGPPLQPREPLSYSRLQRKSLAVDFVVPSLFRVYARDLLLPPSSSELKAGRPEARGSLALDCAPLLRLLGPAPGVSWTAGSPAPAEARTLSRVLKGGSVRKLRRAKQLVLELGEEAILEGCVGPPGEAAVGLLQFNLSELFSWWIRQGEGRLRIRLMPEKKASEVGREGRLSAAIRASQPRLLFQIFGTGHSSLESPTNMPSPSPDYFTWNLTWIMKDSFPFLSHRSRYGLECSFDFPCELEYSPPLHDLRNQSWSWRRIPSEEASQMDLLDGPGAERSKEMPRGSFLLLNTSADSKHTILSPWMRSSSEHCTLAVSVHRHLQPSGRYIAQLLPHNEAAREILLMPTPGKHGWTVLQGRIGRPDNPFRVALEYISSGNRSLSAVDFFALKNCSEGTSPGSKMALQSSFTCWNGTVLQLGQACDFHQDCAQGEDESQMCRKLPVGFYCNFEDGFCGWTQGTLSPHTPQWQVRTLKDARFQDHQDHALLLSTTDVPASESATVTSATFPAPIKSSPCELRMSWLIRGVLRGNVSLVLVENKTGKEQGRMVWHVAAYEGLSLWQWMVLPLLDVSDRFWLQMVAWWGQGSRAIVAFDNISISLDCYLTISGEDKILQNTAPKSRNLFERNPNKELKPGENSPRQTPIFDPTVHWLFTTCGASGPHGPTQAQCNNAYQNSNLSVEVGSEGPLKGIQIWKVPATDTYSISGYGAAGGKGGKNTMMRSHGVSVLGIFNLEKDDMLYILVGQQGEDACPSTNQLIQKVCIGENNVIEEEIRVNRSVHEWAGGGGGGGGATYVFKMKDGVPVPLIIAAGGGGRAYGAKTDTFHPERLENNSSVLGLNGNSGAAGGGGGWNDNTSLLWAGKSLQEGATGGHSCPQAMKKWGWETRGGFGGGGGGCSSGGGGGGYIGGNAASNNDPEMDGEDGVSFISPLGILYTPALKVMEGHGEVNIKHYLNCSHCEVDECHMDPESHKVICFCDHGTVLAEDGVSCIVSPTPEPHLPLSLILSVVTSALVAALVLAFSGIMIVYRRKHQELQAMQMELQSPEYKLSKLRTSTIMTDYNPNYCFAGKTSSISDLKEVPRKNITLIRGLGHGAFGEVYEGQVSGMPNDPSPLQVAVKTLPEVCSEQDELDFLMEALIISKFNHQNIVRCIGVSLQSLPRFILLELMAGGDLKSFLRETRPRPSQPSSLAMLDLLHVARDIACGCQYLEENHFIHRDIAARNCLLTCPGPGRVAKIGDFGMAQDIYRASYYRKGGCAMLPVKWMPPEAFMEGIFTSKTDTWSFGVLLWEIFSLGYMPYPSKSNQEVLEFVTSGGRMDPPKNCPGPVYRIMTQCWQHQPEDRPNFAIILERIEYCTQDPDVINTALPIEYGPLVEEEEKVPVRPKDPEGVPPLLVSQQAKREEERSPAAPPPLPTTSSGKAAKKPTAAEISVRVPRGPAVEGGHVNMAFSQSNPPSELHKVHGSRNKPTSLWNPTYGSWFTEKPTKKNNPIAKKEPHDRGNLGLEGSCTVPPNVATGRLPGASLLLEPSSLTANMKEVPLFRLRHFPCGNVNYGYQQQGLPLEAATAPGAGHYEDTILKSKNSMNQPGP

off-target kinases (Homo sapiens, UniProt P34947), sequence (P34947 whole entry): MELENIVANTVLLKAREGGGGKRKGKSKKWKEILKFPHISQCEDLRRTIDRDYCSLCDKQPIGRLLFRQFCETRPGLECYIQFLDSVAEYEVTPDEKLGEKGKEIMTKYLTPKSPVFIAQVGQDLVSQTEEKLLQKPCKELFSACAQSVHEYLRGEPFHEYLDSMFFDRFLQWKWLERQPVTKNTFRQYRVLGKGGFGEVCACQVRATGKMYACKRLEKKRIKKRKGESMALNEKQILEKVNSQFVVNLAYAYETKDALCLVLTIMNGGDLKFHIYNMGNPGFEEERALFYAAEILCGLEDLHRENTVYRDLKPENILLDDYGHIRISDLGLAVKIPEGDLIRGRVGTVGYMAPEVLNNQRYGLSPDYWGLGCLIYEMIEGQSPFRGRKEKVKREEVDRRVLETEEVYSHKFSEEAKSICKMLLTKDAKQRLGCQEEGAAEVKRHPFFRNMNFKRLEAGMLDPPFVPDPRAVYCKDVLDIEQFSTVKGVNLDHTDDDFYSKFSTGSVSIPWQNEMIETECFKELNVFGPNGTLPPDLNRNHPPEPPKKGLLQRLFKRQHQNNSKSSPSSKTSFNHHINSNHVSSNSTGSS
off-target kinases (Homo sapiens, UniProt Q9BWU1), sequence (Q9BWU1 whole entry): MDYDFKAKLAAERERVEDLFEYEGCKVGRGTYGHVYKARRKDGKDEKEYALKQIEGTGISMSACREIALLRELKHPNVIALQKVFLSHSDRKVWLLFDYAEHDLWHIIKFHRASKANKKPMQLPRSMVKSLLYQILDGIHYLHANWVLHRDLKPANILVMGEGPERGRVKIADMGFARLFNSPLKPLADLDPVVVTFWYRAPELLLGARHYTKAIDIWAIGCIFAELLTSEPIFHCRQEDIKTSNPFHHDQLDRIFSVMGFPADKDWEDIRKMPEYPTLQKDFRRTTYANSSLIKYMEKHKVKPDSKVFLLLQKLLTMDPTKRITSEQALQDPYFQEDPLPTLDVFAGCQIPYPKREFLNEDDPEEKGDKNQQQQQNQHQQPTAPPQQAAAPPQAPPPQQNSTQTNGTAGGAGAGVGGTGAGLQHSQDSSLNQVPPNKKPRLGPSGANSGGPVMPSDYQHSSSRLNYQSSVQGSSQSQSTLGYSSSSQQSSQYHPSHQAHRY

N#Cc1cc(-c2ncnc(Nc3ccc(N4CCN(C5COC5)CC4)cc3)n2)ccc1OC1CCOCC1 [Compound 1, 5-(4-((4-(4-(oxetan-3-yl)piperazin-1-yl)phenyl)amino)-1,3,5-triazin-2-yl)-2-((tetrahydro-2H-pyran-4-yl)oxy)benzonitrile]
inhibition ([1]; read-out: % Inhibition 1): 0%
inhibition ([1]; read-out: % Inhibition 2): 2%
inhibition ([1]; read-out: % Inhibition Avg): 1%
inhibition ([2]; read-out: % Inhibition 1): 99%
inhibition ([2]; read-out: % Inhibition 2): 97%
inhibition ([2]; read-out: % Inhibition Avg): 98%
% Inhibition 1 [3]: −1%
% Inhibition 2 [3]: −7%
% Inhibition Avg [3]: −4%
inhibition ([4]; read-out: % Inhibition 1): 5%
inhibition ([4]; read-out: % Inhibition 2): -10%
inhibition ([4]; read-out: % Inhibition Avg): -3%
inhibition ([5]; read-out: % Inhibition 1): 0%
inhibition ([5]; read-out: % Inhibition 2): 7%
inhibition ([5]; read-out: % Inhibition Avg): 4%
